The record followed here is patent publication US20030166932A1 (priority 2002, published 2003).

The target in assay [1] is T1, RXRγ (UniProt P28705).
T1 sequence (P28705 1-463): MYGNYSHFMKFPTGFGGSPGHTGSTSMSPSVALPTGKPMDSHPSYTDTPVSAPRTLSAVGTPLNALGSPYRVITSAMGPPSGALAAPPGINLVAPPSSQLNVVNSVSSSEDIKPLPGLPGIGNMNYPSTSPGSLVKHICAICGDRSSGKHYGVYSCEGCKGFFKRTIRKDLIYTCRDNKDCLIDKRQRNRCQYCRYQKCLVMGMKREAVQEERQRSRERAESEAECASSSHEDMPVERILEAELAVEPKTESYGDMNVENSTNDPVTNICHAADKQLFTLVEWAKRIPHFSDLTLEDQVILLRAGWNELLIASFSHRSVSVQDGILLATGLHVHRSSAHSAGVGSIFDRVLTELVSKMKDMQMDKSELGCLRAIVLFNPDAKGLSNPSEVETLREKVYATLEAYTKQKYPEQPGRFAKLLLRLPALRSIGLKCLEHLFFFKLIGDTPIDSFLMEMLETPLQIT
As to the kind of experiment: holoreceptor transactivation assay. The format is cell-based. The settings on record: for EC50: NA = Not Active, read-out: RXR Trans. EC50 (nM) Y; for % efficacy, RXR Trans. Y: relative to 10^−6 M AGN 194204.
From the text: (§2) The results obtained in this assay are expressed in EC50 numbers, as they are also in the chimeric receptor transactivation assay. The results of ligand binding assay are expressed in Kd numbers.
(§3) Particularly, the transactivation data pertaining to RAR receptors were obtained in the chimeric assay, and the data pertaining to transactivation of RXR receptors were obtained in the holoreceptor transactivation assay.

In a further assay the target is T2, RARα (Homo sapiens, UniProt P10276).
T2 sequence (P10276 1-462): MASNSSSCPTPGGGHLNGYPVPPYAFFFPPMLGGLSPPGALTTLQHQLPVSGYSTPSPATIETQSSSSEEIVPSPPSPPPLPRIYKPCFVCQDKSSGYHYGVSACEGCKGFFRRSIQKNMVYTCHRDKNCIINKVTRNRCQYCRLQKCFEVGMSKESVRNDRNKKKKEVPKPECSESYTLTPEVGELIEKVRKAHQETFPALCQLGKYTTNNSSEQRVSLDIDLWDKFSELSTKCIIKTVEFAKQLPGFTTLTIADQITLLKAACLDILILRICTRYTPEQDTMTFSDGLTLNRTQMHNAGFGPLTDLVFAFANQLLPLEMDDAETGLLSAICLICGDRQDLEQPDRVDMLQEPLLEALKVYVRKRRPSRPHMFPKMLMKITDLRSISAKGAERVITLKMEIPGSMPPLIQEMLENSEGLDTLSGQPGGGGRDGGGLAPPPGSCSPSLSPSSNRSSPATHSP
As to the kind of experiment: chimeric receptor transactivation assay. The format is cell-based. An excerpt: (§1) The specification of U.S. Pat. No. 5,455,265 is hereby expressly incorporated by reference.

Assay [2] deals with T3, RARβ (Homo sapiens, UniProt P10826).
T3 sequence (P10826 1-455): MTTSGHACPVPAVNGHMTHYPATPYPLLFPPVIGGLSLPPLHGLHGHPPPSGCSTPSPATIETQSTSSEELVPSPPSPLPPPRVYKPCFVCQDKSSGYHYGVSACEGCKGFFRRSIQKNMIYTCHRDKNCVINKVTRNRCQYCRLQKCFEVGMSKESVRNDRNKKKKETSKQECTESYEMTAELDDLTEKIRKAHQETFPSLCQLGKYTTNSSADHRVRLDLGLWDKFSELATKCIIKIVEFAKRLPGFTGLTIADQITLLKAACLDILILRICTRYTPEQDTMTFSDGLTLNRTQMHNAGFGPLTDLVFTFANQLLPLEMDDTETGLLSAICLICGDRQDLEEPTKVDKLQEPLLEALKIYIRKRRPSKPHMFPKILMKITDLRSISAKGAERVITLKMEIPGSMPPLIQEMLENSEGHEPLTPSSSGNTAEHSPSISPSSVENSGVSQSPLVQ
As to the kind of experiment: ligand binding assay. As to conditions: read-out: RAR Bind. Ki (nM) β.
From the text: as §2, §3

Assay [3] addresses T4, RXRα (Homo sapiens, UniProt P19793).
T4 sequence (P19793 1-462): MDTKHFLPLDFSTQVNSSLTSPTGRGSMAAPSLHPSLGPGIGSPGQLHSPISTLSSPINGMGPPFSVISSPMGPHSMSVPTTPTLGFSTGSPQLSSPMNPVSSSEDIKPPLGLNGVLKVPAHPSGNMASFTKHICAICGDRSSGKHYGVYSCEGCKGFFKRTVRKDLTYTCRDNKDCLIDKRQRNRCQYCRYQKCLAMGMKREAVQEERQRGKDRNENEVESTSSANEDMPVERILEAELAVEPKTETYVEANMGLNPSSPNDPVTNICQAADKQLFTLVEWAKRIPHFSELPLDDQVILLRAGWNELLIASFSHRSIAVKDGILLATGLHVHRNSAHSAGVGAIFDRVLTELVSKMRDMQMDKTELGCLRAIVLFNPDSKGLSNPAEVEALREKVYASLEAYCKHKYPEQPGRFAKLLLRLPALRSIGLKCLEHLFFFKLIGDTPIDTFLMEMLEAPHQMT
As to the kind of experiment: ligand binding assay.
From the text: as §2, §3

Assay [4] concerns the target T5, RXRβ (UniProt P28704).
T5 sequence (P28704 1-520): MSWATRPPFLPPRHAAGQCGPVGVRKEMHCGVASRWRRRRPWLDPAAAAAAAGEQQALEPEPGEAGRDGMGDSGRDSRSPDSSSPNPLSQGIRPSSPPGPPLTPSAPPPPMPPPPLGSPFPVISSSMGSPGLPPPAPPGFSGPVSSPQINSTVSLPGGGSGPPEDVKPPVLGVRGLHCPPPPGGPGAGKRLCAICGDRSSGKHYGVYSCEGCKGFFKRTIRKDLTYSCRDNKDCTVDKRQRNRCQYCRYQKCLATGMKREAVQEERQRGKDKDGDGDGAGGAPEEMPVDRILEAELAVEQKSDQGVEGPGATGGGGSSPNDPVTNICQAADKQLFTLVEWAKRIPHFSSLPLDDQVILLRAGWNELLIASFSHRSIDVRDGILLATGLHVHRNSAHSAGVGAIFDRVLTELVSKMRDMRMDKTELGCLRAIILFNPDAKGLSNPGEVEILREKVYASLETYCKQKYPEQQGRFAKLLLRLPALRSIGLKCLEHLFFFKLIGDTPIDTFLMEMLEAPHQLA
As to the kind of experiment: holoreceptor transactivation assay. The format is cell-based. As to conditions: for EC50: NA = Not Active, read-out: RXR Trans. EC50 (nM) β; for % efficacy, RXR Trans. β: relative to 10^−6 M AGN 194204.
From the text: as §2, §3

Assay [5] concerns the target T4, RXRα. As to the kind of experiment: holoreceptor transactivation assay. The settings on record: for Emax: read-out: % efficacy, RXR Trans. α.
From the text: as §2, §3
Assay [6] deals with T5, RXRβ. As to the kind of experiment: ligand binding assay. The settings on record: read-out: RXR Bind Ki (nM) β.
From the text: as §2, §3
In assay [7] the target is T6, RARγ (Homo sapiens, UniProt P13631).
T6 sequence (P13631 1-454): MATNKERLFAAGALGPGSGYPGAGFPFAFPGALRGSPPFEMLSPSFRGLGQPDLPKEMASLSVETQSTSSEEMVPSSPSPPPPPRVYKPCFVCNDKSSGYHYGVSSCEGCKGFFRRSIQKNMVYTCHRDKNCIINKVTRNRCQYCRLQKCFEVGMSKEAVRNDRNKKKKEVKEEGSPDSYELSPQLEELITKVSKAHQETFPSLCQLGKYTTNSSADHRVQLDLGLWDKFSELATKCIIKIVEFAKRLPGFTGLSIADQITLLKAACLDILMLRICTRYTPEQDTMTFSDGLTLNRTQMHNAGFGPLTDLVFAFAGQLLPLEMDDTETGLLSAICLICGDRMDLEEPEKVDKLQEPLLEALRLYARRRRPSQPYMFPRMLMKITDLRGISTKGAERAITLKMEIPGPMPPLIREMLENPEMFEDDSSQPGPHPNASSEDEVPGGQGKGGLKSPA
As to the kind of experiment: ligand binding assay. The settings on record: read-out: RAR Bind. Ki (nM) Y.
From the text: as §2, §3

Assay [8] has as its target T7, RARγ (Homo sapiens, UniProt P13631).
T7 sequence (P13631 156-454): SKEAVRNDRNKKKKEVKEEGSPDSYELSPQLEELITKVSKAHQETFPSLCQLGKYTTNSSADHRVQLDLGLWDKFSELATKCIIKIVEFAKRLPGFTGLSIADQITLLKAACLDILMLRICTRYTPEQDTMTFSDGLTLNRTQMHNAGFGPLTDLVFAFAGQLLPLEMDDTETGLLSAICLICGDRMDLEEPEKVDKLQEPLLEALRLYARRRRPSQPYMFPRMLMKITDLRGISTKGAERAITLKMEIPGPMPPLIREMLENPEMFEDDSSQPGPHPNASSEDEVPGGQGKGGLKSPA
In kind it is cell-based.
From the text: as §1

For assay [9], the target named is T8, RARβ (Homo sapiens, UniProt P10826).
T8 sequence (P10826 154-455): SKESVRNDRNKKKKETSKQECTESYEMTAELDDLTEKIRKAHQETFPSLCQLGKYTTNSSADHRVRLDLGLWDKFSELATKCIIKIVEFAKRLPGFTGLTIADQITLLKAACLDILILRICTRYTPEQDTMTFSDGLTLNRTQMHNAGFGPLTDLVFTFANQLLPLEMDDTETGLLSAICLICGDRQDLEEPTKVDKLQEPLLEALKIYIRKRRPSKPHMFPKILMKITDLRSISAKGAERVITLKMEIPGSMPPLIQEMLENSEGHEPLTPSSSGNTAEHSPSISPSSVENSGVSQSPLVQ
As to the kind of experiment: cell-based. In kind it is cell-based. The settings on record: for EC50: NA = Not Active, read-out: RAR Trans. EC50 (nM) β; for Emax: relative to 10^−6 M ATRA, read-out: % efficacy, RAR Trans. β.
From the text: as §1

For assay [10], the target named is T1, RXRγ. As to the kind of experiment: ligand binding assay. The settings on record: read-out: RXR Bind Ki (nM) Y.

In general, EC50 refers to the concentration needed to bring the measured effect to its halfway point. What is called Ki is the equilibrium dissociation constant of an inhibitor or competing ligand from its target. As to `CCN(c1ccc(C(=O)O)cc1)c1cc2c(cc1C)C(C)(C)CC=C2C(C)(C)C` [Compound 26, 4-[Ethyl(8-t-butyl-3,5,5-trimethyl-5,6-dihydronaphthalen-2-yl)amino]benzoic acid], the EC50 at RXRγ [1] was 0.5 nM; at RARα (NA = Not Active, read-out: RAR Trans. EC50 (nM) α), 0.5 nM; at RXRβ [4] it was 4 nM; on RXRα [5], 0.3 nM. Moreover, on RXRγ [1], the “% efficacy, RXR Trans. Y” value was “(90) %”. For the same compound, the Emax on RARα (relative to 10^−6 M ATRA, read-out: % efficacy, RAR Trans. α) worked out at 10%; on RXRα [5] it was 85%. Besides, the Ki was determined as 1300 nM on RARβ [2], 7 nM at RXRα [3], 30 nM at RXRβ [6] and 4000 nM at RARγ [7]. Moreover, on RXRβ [4], the “% efficacy, RXR Trans. β” value is “(84) %”.
Take `C=CCN(c1ccc(C(=O)O)cc1)c1ccc2c(c1)C(C(C)(C)C)=CCC2(C)C` [Compound 90, 4-[(8-t-Butyl-5,5-dimethyl-5,6-dihydronaphthalen-2-yl)(prop-2-en-yl)lamino]-benzoic acid]: the EC50 at RXRγ [1] was 12 nM; at RARγ [8] (NA = Not Active, read-out: RAR Trans. EC50 (nM) Y), greater than 1000 nM; on RXRβ [4], 76 nM; at RARβ [9] it was greater than 1000 nM; on RXRα [5], 12 nM. Also, the “% efficacy, RXR Trans. Y” value at RXRγ [1] is “(102) %”. The “% efficacy, RAR Trans. Y” value at RARγ [8] (relative to 10^−6 M ATRA) was “(5) %”. Further, the Ki is greater than 10000 nM at RARβ [2]; 39 nM on RXRα [3]; 68 nM on RXRγ [10]; 84 nM on RXRβ [6]; greater than 10000 nM at RARγ [7]. For the same compound, at RXRβ [4], the “% efficacy, RXR Trans. β” value is reported as “(110) %”. In addition, the Emax came out at 15% at RARβ [9] and 112% on RXRα [5].
In the case of `CCCN(c1ccc(C(=O)O)cc1)c1cc2c(cc1OCc1ccccc1)C(C)(C)CC=C2C(C)C` [Compound 157], the Ki was 1200 nM on RARβ [2]; 8 nM on RXRα [3]; 99 nM on RXRγ [10]; 46 nM on RXRβ [6]; 13000 nM on RARγ [7]. Further, the EC50 on RARβ [9] was greater than 1000 nM. Besides, the Emax at RARβ [9] stood at 32%.
As to `CCN(c1ccc2c(c1)C(C(C)C)=CCC2(C)C)c1ccc(C(=O)O)cn1` [Compound 172, 6-[Ethyl-(8-isopropyl5,5-dimethyl-5,6-dihydro-naphthalen-2-yl)-amino]-nicotinic acid], the values for the EC50 on RXRγ [1], on RXRβ [4] and at RXRα [5] were 2 nM, 13 nM and 2 nM, respectively. Besides, the “% efficacy, RXR Trans. Y” value on RXRγ [1] is given as “(118) %”. The Ki on RARβ [2] was 6000 nM; at RXRα [3], 0.7 nM; at RXRγ [10], 6 nM; on RXRβ [6], 4 nM; on RARγ [7] it was greater than 10000 nM. On RXRβ [4], the “% efficacy, RXR Trans. β” value is recorded as “(112) %”. Also, the Emax on RXRα [5] is 109%.
